Structures can show the parent of a compound that is named as a salt. Where two headings read alike, the source gives them in different places.
Tests used:
Human primary myoblasts [1] = assay: Hypertrophy assay (MyoScreen human myotube model): primary screening, retest, dose response; assay type: cell-based
Human primary myoblasts [2] = assay: as above; assay type: cell-based; remark: listed apart in the source
Protocol: Healthy donor primary skeletal cells (Donor 1 and Donor 3) were Clonetics™ Human Skeletal Muscle Myoblasts (HSMM).
(§1) Hypertrophy and Atrophy Rescue assays were performed using an in vitro fully automated human myotube model called MyoScreen™ (Cytoo, France). This model relies on a tight control of the microenvironment that guides the differentiation of human primary myoblasts. Myotubes formed on MyoScreen™ micropatterns present a high level of maturation together with a highly standardized morphology.
(§2) Human primary myoblasts from donors were seeded in MyoScreen™ micropatterned 96-well plates (Cytoo, France), let them adhere for 24 h in growth medium, then run the differentiation in a low horse serum medium for at least 5 days.
(§3) At Day 0, MyoScreen™ plates (Cytoo, France) containing micropatterns were pre-filled with 200 μl/well of growth medium and stored in the incubator at 37° C. Human primary myoblasts were detached from the flasks, count, and seeded into the plates with 15 000 cells per well in 100 μl of growth medium.
(§4) At Day 1, the growth medium was changed for a differentiation medium, 300 μ/well (DMEM with 0.1% horse serum) in which myoblasts started differentiating and forming myotubes.
(§5) At Day 2, the differentiation medium was changed. Then candidate compounds were diluted with differentiation medium and transferred into the plate. The final concentration of DMSO should be not higher than 0.1%. At least 6 wells were treated with the vehicle as a basal control, and 6 wells were treated with IGF-1 at 100 ng/ml as positive hypertrophy control.
(§6) At Day 6, cells were fixed with formalin 5% for 30 min at room temperature, then permeabilized with Triton X-100 at 0.1% in PBS for 15 min, and blocked with PBS+BSA 1% for 20 minutes. Myotubes were incubated with first antibody against Troponin T in blocking buffer for 1 h30, washed three times with PBS, incubated with secondary antibody and Hoescht ( 1/10000) for 1 h30, and washed three times with PBS.
Images were acquired at 10× magnification with an Operetta High Content Imaging System. Image processing and analysis were performed with dedicated algorithms developed on the Acapella High Content Imaging Software (Perkin Elmer) by CYTOO. Eleven fields per well were acquired.
First, segmentation of myotubes and nuclei were done using respectively the Troponin T staining intensity and the Hoechst staining. […] The threshold of segmentation was set-up in order to avoid detecting the background noise and eliminate aberrant small myotube structures.
Then, an image clean-up step was performed on the Troponin T images in order to remove myotubes that touch the border of the image. The final valid myotubes were used to extract myotube morphology parameters including the myotube width and area, and the number of nuclei per myotube.
Nuclei Count, Fusion Index, Mean myotube Area and Number of nuclei per myotube have been validated as relevant and sensitive readouts of myotube differentiation as well as atrophic and hypertrophic induction.
A primary screening was run to identify hypertrophy compounds that increase the myotube differentiation and size. Candidate compounds were tested at 10 μM in monoplicate on Donor 3 cells.
A retest was run, by cherry picking (same compound batch as primary screening): each hit was tested in the same conditions as in the Primary Screening (Donor 3, 10 μM) in six well replicates.
Dose response assays were performed on two healthy donors (Donors 3 and 1): 8 doses of candidate compounds between 33 μM and 0.015 μM, 2 well replicates per dose.

[3] = system: Myotubes from the healthy donor 3; assay: Atrophy Rescue assay (MyoScreen) with atrophy inducers; assay type: cell-based, Human; parameters: key: +++: total rescue; ++: partial rescue; +: low rescue; details: tranylcypromine 1 μM; for atrophy rescue, IL-1: inducer IL-1β 25 ng/mL; for atrophy rescue, TGF-β: inducer TGF-β 0.5 ng/mL; for atrophy rescue, TNF-alpha: inducer TNF-α 2 ng/mL; for atrophy rescue, dexamethasone: inducer dexamethasone 100 μM; for atrophy rescue, Myostatin: inducer myostatin 150 ng/mL
Protocol: as §1, §2, §3, §4, §5
For Atrophy Rescue assay, one hour after candidate compound addition, atrophy inducers were added at the following final concentration: 150 ng/mL of myostatin, 25 ng/mL of IL-1β, 2 ng/mL of TNF-α, 0.5 ng/mL of TGF-β and 100 μM of dexamethasone.
as §6
Atrophy Rescue assays were performed in triplicate in the presence of atrophy inducers, i.e. TNF-α, IL-1β, Myostatin, TGF-β and dexamethasone, and at 1 μM tranylcypromine.
Atrophy rescue assays was performed for tranylcypromine. Myotubes from the healthy donor 3 were atrophied using different inducers: TNF-α, IL-1β, Myostatin, TGF-β and dexamethasone. The ability of tranylcypromine to block the atrophy induced by these different atrophy inducers was determined.

MyoScreen myotubes = assay: Acetylcholine Receptor (AchR) Clustering Assay (MyoScreen); assay type: cell-based, Human; details: after 7 days of treatment
Protocol: The MyoScreen™ protocol was performed as described in the Hypertrophy and Atrophy rescue assay in example 1 but was stopped at Day 9 instead of Day 6. At the end of the assay, AchR were immunostained using a specific antibody in addition to Troponin T and nuclei. Images were acquired at ×20 with an Operetta High Content Imaging System from Perkin Elmer. Image processing and analyses were performed with a dedicated algorithm developed on the Acapella High Content Imaging Software (Perkin Elmer). Specific readouts were calculated in each well: nuclei count and myotube fusion index, number of AchR, AchR mean area, AchR total area normalized by the myotube total area.
Remarkably, when labeled with a specific anti-AChR antibody, MyoScreen myotubes at 6 days post-differentiation display AChR clusters punctuated along the sarcolemma membrane in the middle of the myotube fiber and in distinct regions at the ends of myotubes. To develop an automated AChR cluster assay, an AChR detection routine was developed that was sensitive and robust enough to analyze aggregate number and size clusters in images using the Operetta/Acapella system (see Materials and Methods).

[4] = Donor 3, second dose response assay, lower concentrations
[5] = Donor 1, first dose response assay (0.015-33 μM)
[6] = Donor 3, first dose response assay (0.015-33 μM)
[7] = Homo sapiens, Myoblast, Donor 3, second dose response assay
[8] = Donor 5, Example 2 dose response
[9] = Donor 7, compounds at 1 μM (IGF-1 positive control)
[10] = Donor 3, Example 2 dose response

N[C@H]1C[C@@H]1c1ccccc1 (relative stereo) [Tranylcypromine, trans-2-phenylcyclopropan-1-amine]
% Activity (Human primary myoblasts [1]; [4]): 135% | EC50 (Human primary myoblasts [1]; Homo sapiens, Myoblast, Donor 1, first dose response assay): < 300 nM | activity at 10 µM (Human primary myoblasts [1]; Homo sapiens, Myoblast, Donor 3, compounds 10 μM, monoplicate (IGF-1 control 100 ng/ml), Myotube fusion index (compound)*100/basal control, read-out: Primary screening (% Activity)): 176% | activity at 10 µM (Human primary myoblasts [1]; Homo sapiens, Myoblast, Donor 3, compounds 10 μM, six well replicates (IGF-1 control 100 ng/ml), Myotube fusion index (compound)*100/basal control, read-out: Retest (% Activity)): 136% | EC50 (Human primary myoblasts [1]; Homo sapiens, Myoblast, Donor 3, first dose response assay): < 30 nM | increase in the fusion index or/and myotube area readouts (Human primary myoblasts [1]; primary screening and retest, Donor 3, 10 μM): > 30% | % Activity (Human primary myoblasts [2]; [5]): 138% | % Activity (Human primary myoblasts [2]; [6]): 127% | EC50 (Human primary myoblasts [2]; [7]): 50 nM | atrophy rescue, IL-1 [3]: +++ | atrophy rescue, TGF-β [3]: + | atrophy rescue, TNF-alpha [3]: + | atrophy rescue, dexamethasone [3]: ++ | atrophy rescue, Myostatin [3]: +++

Cl.Cl.NNCCc1ccc(NC(=O)CCCc2ccccc2)cc1 [Bizine]
% Activity (Human primary myoblasts [1]; [8]): 119% | EC50 (Human primary myoblasts [1]; [8]): 87 nM | % Activity (Human primary myoblasts [1]; [9]): 116% at 1 μM | % Activity (Human primary myoblasts [2]; [10]): 120% | EC50 (Human primary myoblasts [2]; [10]): < 350 nM

c1ccc(C2C[C@H]2NC2CCNCC2)cc1 (stereo partly drawn) [GSK LSD1]
% Activity (Human primary myoblasts [1]; [4]): 145% | % Activity (Human primary myoblasts [1]; [8]): 146% | EC50 (Human primary myoblasts [1]; Homo sapiens, Myoblast, Donor 5, Example 2 dose response): 0.012 nM | activity at 1 µM (Human primary myoblasts [1]; Homo sapiens, Myoblast, Donor 7, compounds at 1 μM (IGF-1 positive control)): 120% | activity at 1 µM (Human primary myoblasts [1]; Homo sapiens, Myoblast, Donor C1, compound at 1 μM (IGF-1 positive control)): 154% | activity at 1 µM (Human primary myoblasts [1]; Homo sapiens, Myoblast, Donor C13, compound at 1 μM (IGF-1 positive control)): 123% | increase of AchR cluster total area (normalized by total myotube area) (MyoScreen myotubes; Donor 3): 50% | increase of AchR cluster total area (normalized by total myotube area) (MyoScreen myotubes; Donor 5): 260% | EC50 (Human primary myoblasts [2]; [7]): 0.1 nM

CN1CCN(C(=O)CN[C@H]2C[C@@H]2c2ccc(OCc3ccccc3)cc2)CC1 [RN 1 dihydrochloride]
% Activity (Human primary myoblasts [1]; [4]): 135% | EC50 (Human primary myoblasts [2]; [7]): 0.1 nM

IGF-1: insulin-like growth factor I, positive hypertrophy control at 100 ng/ml
Retest (% Activity) (Human primary myoblasts [1]; Donor 3, compounds 10 μM, six well replicates (IGF-1 control 100 ng/ml), Myotube fusion index (compound)*100/basal control): 190% | % Activity (Human primary myoblasts [1]; [4]): 150% | % Activity (Human primary myoblasts [1]; [8]): 145% | % Activity (Human primary myoblasts [1]; [9]): 119% | % Activity (Human primary myoblasts [1]; Donor C1, compound at 1 μM (IGF-1 positive control)): 124% | % Activity (Human primary myoblasts [1]; Donor C13, compound at 1 μM (IGF-1 positive control)): 141% | % Activity (Human primary myoblasts [2]; [5]): 150% | % Activity (Human primary myoblasts [2]; [10]): 190% | Primary screening (% Activity) (Human primary myoblasts [2]; Donor 3, compounds 10 μM, monoplicate (IGF-1 control 100 ng/ml), Myotube fusion index (compound)*100/basal control): 210% | % Activity (Human primary myoblasts [2]; [6]): 150% | atrophy rescue, IL-1 [3]: +++ | atrophy rescue, TGF-β [3]: ++ | atrophy rescue, TNF-alpha [3]: +++ | atrophy rescue, dexamethasone [3]: +++ | atrophy rescue, Myostatin [3]: +++
